Measurements reported in ChEMBL document CHEMBL3585240, “Synthesis and biological evaluation of caracasine acid derivatives” (Bioorg Med Chem, 2015).
Active and inactive are the calls of the source. The rule behind the calls is not given here.

Key:
Pseudomonas aeruginosa [1] = assay: Antibacterial activity against Pseudomonas aeruginosa ATCC 27853 assessed as growth inhibition at 5 ug after 24 hrs by disc agar diffusion method; format: functional; conditions: ATCC 27853, 24 h, read-out: DIZ
Bacillus cereus [2] = assay: Antibacterial activity against Bacillus cereus ATCC 14579 assessed as growth inhibition at 5 ug after 24 hrs by disc agar diffusion method; format: functional; conditions: ATCC 14579, 24 h, read-out: DIZ
Escherichia coli [3] = assay: Antibacterial activity against Escherichia coli ATCC 35218 assessed as growth inhibition at 5 ug after 24 hrs by disc agar diffusion method; format: functional; conditions: ATCC 35218, 24 h, read-out: DIZ
Staphylococcus aureus [4] = assay: Antibacterial activity against Staphylococcus aureus ATCC 25923 assessed as growth inhibition at 5 ug after 24 hrs by disc agar diffusion method; format: functional; conditions: ATCC 25923, 24 h, read-out: DIZ
Escherichia coli [5] = assay: Antibacterial activity against Escherichia coli ATCC 35218 assessed as growth inhibition at 15 ug after 24 hrs by disc agar diffusion method; format: functional; conditions: ATCC 35218, 24 h, read-out: DIZ
Pseudomonas aeruginosa [6] = assay: Antibacterial activity against Pseudomonas aeruginosa ATCC 27853 assessed as growth inhibition at 15 ug after 24 hrs by disc agar diffusion method; format: functional; conditions: ATCC 27853, 24 h, read-out: DIZ
Staphylococcus aureus [7] = assay: Antibacterial activity against Staphylococcus aureus ATCC 25923 assessed as growth inhibition at 15 ug after 24 hrs by disc agar diffusion method; format: functional; conditions: ATCC 25923, 24 h, read-out: DIZ
Bacillus cereus [8] = assay: Antibacterial activity against Bacillus cereus ATCC 14579 assessed as growth inhibition at 15 ug after 24 hrs by disc agar diffusion method; format: functional; conditions: ATCC 14579, 24 h, read-out: DIZ
Bacillus cereus [9] = assay: Antibacterial activity against Bacillus cereus ATCC 14579 assessed as growth inhibition at 30 ug after 24 hrs by disc agar diffusion method; format: functional; conditions: ATCC 14579, 24 h, read-out: DIZ
Staphylococcus aureus [10] = assay: Antibacterial activity against Staphylococcus aureus ATCC 25923 assessed as growth inhibition at 30 ug after 24 hrs by disc agar diffusion method; format: functional; conditions: ATCC 25923, 24 h, read-out: DIZ
Escherichia coli [11] = assay: Antibacterial activity against Escherichia coli ATCC 35218 assessed as growth inhibition at 30 ug after 24 hrs by disc agar diffusion method; format: functional; conditions: ATCC 35218, 24 h, read-out: DIZ
Pseudomonas aeruginosa [12] = assay: Antibacterial activity against Pseudomonas aeruginosa ATCC 27853 assessed as growth inhibition at 30 ug after 24 hrs by disc agar diffusion method; format: functional; conditions: ATCC 27853, 24 h, read-out: DIZ
MCF7 [13] = assay: Cytotoxicity against human MCF7 cells assessed as growth inhibition after 72 hrs by MTT assay; format: functional, cell-based; conditions: MCF7, 72 h
[14] = Cytotoxicity against human skin fibroblasts assessed as growth inhibition after 72 hrs by MTT assay; conditions: Skin fibroblast
PC-3 [15] = assay: Selectivity index, ratio of IC50 for human skin fibroblasts to IC50 for human PC3 cells
MCF7 [16] = assay: Selectivity index, ratio of IC50 for human skin fibroblasts to IC50 for human MCF7 cells
Staphylococcus aureus [17] = assay: Antibacterial activity against Staphylococcus aureus ATCC 25923 assessed as growth inhibition at 2 mg/ml after 24 hrs by disc agar diffusion method; format: functional
Bacillus cereus [18] = assay: Antibacterial activity against Bacillus cereus ATCC 14579 assessed as growth inhibition at 2 mg/ml after 24 hrs by disc agar diffusion method; format: functional
[19] = Selectivity index, ratio of IC50 for human skin fibroblasts to IC50 for promastigote stage of Leishmania mexicana Bel21
PC-3 [20] = assay: Cytotoxicity against human PC3 cells assessed as growth inhibition after 72 hrs by MTT assay; format: functional, cell-based; conditions: PC-3, 72 h
Escherichia coli [21] = assay: Antibacterial activity against Escherichia coli ATCC 35218 assessed as growth inhibition at 2 mg/ml after 24 hrs by disc agar diffusion method; format: functional
Trypanosoma cruzi = assay: Antitrypanosomal activity against epimastigote stage of Trypanosoma cruzi CL Brener assessed as growth inhibition after 5 days by MTT assay; format: functional; conditions: 120 h
Pseudomonas aeruginosa [22] = assay: Antibacterial activity against Pseudomonas aeruginosa ATCC 27853 assessed as growth inhibition at 2 mg/ml after 24 hrs by disc agar diffusion method; format: functional
Leishmania mexicana = assay: Antileishmanial activity against promastigote stage of Leishmania mexicana Bel21 assessed as growth inhibition after 48 hrs by MTT assay; format: functional, organism-based; conditions: Bel21, 48 h
[23] = Selectivity index, ratio of IC50 for human skin fibroblasts to IC50 for epimastigote stage of Trypanosoma cruzi CL Brener
Escherichia coli [24] = assay: Antibacterial activity against Escherichia coli ATCC 35218 assessed as growth inhibition at 20 ug after 24 hrs by disc agar diffusion method in presence of sulbactam; format: functional, organism-based
Bacillus cereus [25] = assay: Antibacterial activity against Bacillus cereus ATCC 14579 assessed as growth inhibition at 20 ug after 24 hrs by disc agar diffusion method in presence of sulbactam; format: functional, organism-based
Pseudomonas aeruginosa [26] = assay: Antibacterial activity against Pseudomonas aeruginosa ATCC 27853 assessed as growth inhibition at 20 ug after 24 hrs by disc agar diffusion method in presence of sulbactam; format: functional; conditions: ATCC 27853, 24 h, read-out: DIZ
Staphylococcus aureus [27] = assay: Antibacterial activity against Staphylococcus aureus ATCC 25923 assessed as growth inhibition at 20 ug after 24 hrs by disc agar diffusion method in presence of sulbactam; format: functional; conditions: ATCC 25923, 24 h, read-out: DIZ

What does the source list for `CC1COc2c(N3CCN(C)CC3)c(F)cc3c(=O)c(C(=O)O)cn1c23` (configuration not stated) [OFLOXACIN]?
zone of inhibition at 5 µg/disc (Pseudomonas aeruginosa [1]): 15 mm; zone of inhibition at 5 µg/disc (Bacillus cereus [2]): 28 mm; zone of inhibition at 5 µg/disc (Escherichia coli [3]): 24 mm; zone of inhibition at 5 µg/disc (Staphylococcus aureus [4]): 25 mm

With `CC[C@H]1OC(=O)C[C@@H](O)[C@H](C)[C@@H](O[C@@H]2O[C@H](C)[C@@H](O)[C@H](N(C)C)[C@H]2O)[C@@H](CCN2C[C@H](C)C[C@H](C)C2)C[C@@H](C)C(=O)/C=C/C(C)=C/[C@@H]1CO[C@@H]1O[C@H](C)[C@@H](O)[C@@H](OC)[C@H]1OC` [TILMICOSIN] as the compound, how does the zone of inhibition at 15 µg/disc (Escherichia coli [5]) read?
The zone of inhibition at 15 µg/disc was 18 mm.

And the zone of inhibition at 15 µg/disc (Pseudomonas aeruginosa [6])?
Its zone of inhibition at 15 µg/disc is 18 mm.

What about the zone of inhibition at 15 µg/disc (Staphylococcus aureus [7]) of the same compound?
Its zone of inhibition at 15 µg/disc is 23 mm.

What about the zone of inhibition at 15 µg/disc (Bacillus cereus [8]) of the same compound?
Its zone of inhibition at 15 µg/disc is 32 mm.

What does the source list for `NCC[C@H](O)C(=O)N[C@@H]1C[C@H](N)[C@@H](O[C@H]2O[C@H](CN)[C@@H](O)[C@H](O)[C@H]2O)[C@H](O)[C@H]1O[C@H]1O[C@H](CO)[C@@H](O)[C@H](N)[C@H]1O` [AMIKACIN]?
zone of inhibition at 30 µg/disc (Bacillus cereus [9]): 32 mm; zone of inhibition at 30 µg/disc (Staphylococcus aureus [10]): 16 mm; zone of inhibition at 30 µg/disc (Escherichia coli [11]): 22 mm; zone of inhibition at 30 µg/disc (Pseudomonas aeruginosa [12]): 16 mm

With `C=C1C(=O)[C@@]23CC[C@H](C(=C)C)[C@@](C)(CCC(=O)OCC)[C@@H]2CC[C@H]1C3` as the compound, how does the IC50 (MCF7 [13]) read?
The IC50 was 5.1 µM.

What about the IC50 [14] of the same compound?
Its IC50 is 3.7 µM.

And the “Ratio IC50” value (PC-3 [15])?
Its value is 0.8.

What about the “Ratio IC50” value (MCF7 [16]) of the same compound?
Its value is 0.7.

And the “growth inhibition (GI)” value (Staphylococcus aureus [17])?
The value was “inactive”.

What about the “growth inhibition (GI)” value (Bacillus cereus [18]) of the same compound?
The value was “inactive”.

What about the “Ratio IC50” value [19] of the same compound?
The value was 2.3.

What about the IC50 (PC-3 [20]) of the same compound?
Its IC50 is 4.4 µM.

And the “growth inhibition (GI)” value (Escherichia coli [21])?
The value was “inactive”.

And the IC50 (Trypanosoma cruzi)?
Its IC50 is 2.7 µM.

What about the “growth inhibition (GI)” value (Pseudomonas aeruginosa [22]) of the same compound?
Its value is “inactive”.

And the IC50 (Leishmania mexicana)?
Its IC50 is 1.6 µM.

And the “Ratio IC50” value [23]?
The value was 1.4.

What does the source list for `CC1(C)S[C@@H]2[C@H](NC(=O)[C@H](N)c3ccccc3)C(=O)N2[C@H]1C(=O)O` [AMPICILLIN]?
growth inhibition (GI) (Escherichia coli [24]): inactive; growth inhibition (GI) (Bacillus cereus [25]): inactive; zone of inhibition at 20 µg/disc (Pseudomonas aeruginosa [26]): 12 mm; zone of inhibition at 20 µg/disc (Staphylococcus aureus [27]): 18 mm

For `C=C1C(=O)[C@@]23CC[C@H](C(=C)C)[C@@](C)(CCC(=O)O)[C@@H]2CC[C@H]1C3`, which IC50 (MCF7 [13]) is on record?
Its IC50 is 15.8 µM.

And the IC50 [14]?
The IC50 was 39.7 µM.

What about the “Ratio IC50” value (PC-3 [15]) of the same compound?
Its value is 5.

What about the “Ratio IC50” value (MCF7 [16]) of the same compound?
The value was 2.5.

What about the zone of inhibition at 2000 µg/mL (Staphylococcus aureus [17]; ATCC 25923, 24 h, read-out: DIZ) of the same compound?
The zone of inhibition at 2000 µg/mL was 24 mm.

What about the zone of inhibition at 2000 µg/mL (Bacillus cereus [18]; ATCC 14579, 24 h, read-out: DIZ) of the same compound?
The zone of inhibition at 2000 µg/mL was 22 mm.

And the “Ratio IC50” value [19]?
The value was 1.3.

What about the IC50 (PC-3 [20]) of the same compound?
The IC50 was 7.9 µM.

And the zone of inhibition at 2000 µg/mL (Escherichia coli [21]; ATCC 35218, 24 h, read-out: DIZ)?
The zone of inhibition at 2000 µg/mL was 22 mm.

And the IC50 (Trypanosoma cruzi)?
The IC50 was 22.3 µM.

And the zone of inhibition at 2000 µg/mL (Pseudomonas aeruginosa [22]; ATCC 27853, 24 h, read-out: DIZ)?
Its zone of inhibition at 2000 µg/mL is 30 mm.

What about the IC50 (Leishmania mexicana) of the same compound?
Its IC50 is 30.8 µM.

And the “Ratio IC50” value [23]?
Its value is 1.8.
